# Measured values taken from patent US8808769B2, “Method for extraction of fractions containing pharmacologically active ingredients with less cytotoxicity from one or more plants” (Bioved Pharmaceuticals, Inc., priority 2009, dated 2014).
# System: Pseudomonas aeruginosa (ATCC 9027)
# Assay: agar well diffusion assay (antimicrobial activity)
# Assay type: cell-based
# Settings: ATCC9027, 100 μl of 100 mg/ml solution per well, 37° C., 24 hours of incubation, mean of three readings, read-out: zone of inhibition (diameter)
# Text: Pseudomonas aeruginosa (ATCC 9027) strain was used as test organisms. The culture media, Nutrient Agar (NA), Nutrient Broth (NB) and Czapek Yeast Extract Agar (CYA) used for the growth of microorganisms, were purchased from Hi-Media. All other chemicals, including organic solvents used for the extraction of the plant metabolites, were of analytical grade.
# The AP Extract 2, SX Extract 2, OS Extract 2, AP Extract 1, SX Extract 1 and OS Extract 1 were separately dissolved in 100% aqueous dimethylsulfoxide (DMSO) to obtain a final concentration of 100 mg/ml for each extract. 100 mg/ml solution of Chloramphenicol was prepared and used as a Positive control. Antimicrobial activity of the above mentioned extracts was determined, using the agar well diffusion assay method (Perez et al., 1990). Approximately 20 ml of molten and cooled media (NA and CYA) were poured in sterilized Petri dishes. The plates were left overnight at room temperature to check for any contamination to appear. The test organism was grown in nutrient broth for 24 hours. […]
# Agar wells of 5 mm diameter were prepared with the help of a sterilized stainless steel cork borer. […] The antimicrobial activity of the extracts was taken on the basis of diameter of zone of inhibition, which was measured at cross-angles after 24 hours of incubation and the mean of three readings for each extract.
compound,measurement,value
"O=C(N[C@H](CO)[C@H](O)c1ccc([N+](=O)[O-])cc1)C(Cl)Cl [positive standard, Chloramphenicol]",zone of inhibition at 100000 µg/mL,40 mm
